Test results published in ChEMBL document CHEMBL4177587, “SIRT6 inhibitors with salicylate-like structure show immunosuppressive and chemosensitizing effects” (Bioorg Med Chem, 2017).
The source made the active and inactive calls. The rule behind the calls is not given here.

Experiments:
[1] = target: T1, NAD-dependent protein deacylase sirtuin-6 (Homo sapiens, UniProt Q8N6T7); experiment: Inhibition of human recombinant SIRT6 assessed as reduction in NAD+-dependent deacetylase activity at 200 uM using Arg-His-Lys-Lys(epsilon-acetyl)-AMC substrate and NAD+ by fluorescence based assay
[2] = target: T1, NAD-dependent protein deacylase sirtuin-6; experiment: Inhibition of SIRT6 in human BxPC3 cells assessed as increase in 2-NBDG uptake at 100 uM incubated for 18 hrs by glucose uptake assay; format: cell-based
[3] = species on record: Homo sapiens; experiment: Selectivity index, ratio of IC50 for human recombinant SIRT2 to IC50 for human recombinant SIRT6
[4] = target: T1, NAD-dependent protein deacylase sirtuin-6; experiment: Inhibition of SIRT6 in human BxPC3 cells assessed as reduction in TNFalpha production at 100 uM incubated for 18 hrs by ELISA method; format: cell-based
[5] = species on record: Homo sapiens; experiment: Selectivity index, ratio of IC50 for human recombinant SIRT1 to IC50 for human recombinant SIRT6
[6] = target: T1, NAD-dependent protein deacylase sirtuin-6; experiment: Inhibition of SIRT6 in human BxPC3 cells assessed as increase in H3K9 acetylation by immunoblotting relative to untreated control; format: cell-based; design: concentration or dose not given beside the values

T1 sequence (Q8N6T7 whole entry): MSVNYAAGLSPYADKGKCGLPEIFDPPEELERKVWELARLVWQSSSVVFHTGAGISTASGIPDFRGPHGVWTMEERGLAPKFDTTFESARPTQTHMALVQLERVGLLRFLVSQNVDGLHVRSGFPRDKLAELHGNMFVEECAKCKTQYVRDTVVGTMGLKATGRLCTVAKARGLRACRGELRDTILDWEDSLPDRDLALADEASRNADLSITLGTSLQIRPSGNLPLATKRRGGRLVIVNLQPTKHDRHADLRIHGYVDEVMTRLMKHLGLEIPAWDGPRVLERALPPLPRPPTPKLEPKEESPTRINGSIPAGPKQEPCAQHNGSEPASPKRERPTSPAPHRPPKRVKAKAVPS

Compound	inhibition [1]	further results
O=C(O)c1cc(NC(=O)c2cccc(N3C(=O)CCC3=O)c2)cc(C(=O)O)c1	68%	–
Cc1cc(O)c(C(=O)O)cc1S(=O)(=O)Nc1ccc(NC(=O)NCC2CCCO2)cc1 (stereo unspecified)	17%	–
O=C(Cc1cccs1)Nc1cccc(C(=O)Nc2cccc(C(=O)O)c2)c1	inactive	–
O=C(Nc1ccc(O)c(C(=O)O)c1)c1cccc(NC(=O)c2ccco2)c1	–	fold change (FC) [2]: 1.3; Ratio IC50 [3]: 8.44; inhibition [4]: 52%; Ratio IC50 [5]: 17.7; fold change (FC) [6]: 2.1
CC(=O)Nc1cccc(NS(=O)(=O)c2cc(C(=O)O)c(O)cc2C)c1	inactive	–
Cc1c(NC(=O)c2cccc(NC(=O)c3ccco3)c2)cccc1C(=O)O	18%	–

More lines, main results first:

inhibition [1]	Compound	further results
100%	O=C(Nc1ccc(C(=O)O)c(O)c1)c1ccc(N2C(=O)CCS2(=O)=O)cc1	–
89%	O=C(Nc1ccc(O)c(C(=O)O)c1)c1ccc(N2C(=O)CCS2(=O)=O)cc1	–
54%	O=C(Nc1ccc(O)c(C(=O)O)c1)c1cccc(N2C(=O)CCS2(=O)=O)c1	–
50%	O=C(Nc1ccc(O)c(C(=O)O)c1)c1ccc(NC(=O)C2CC2)cc1	–
inactive	CC(=O)Nc1ccc(NS(=O)(=O)c2ccc(O)c(C(=O)O)c2)cc1	–
62%	O=C(Nc1ccc(C(=O)O)c(O)c1)c1cccc(NC(=O)c2ccco2)c1	–
